Measurements: article PMC1084349 (BMC Neuroscience, 2005)
Where a SMILES comes first, the peptide text is derived from it.

Biological target: T1, hTAS1R2-hTAS1R3 (Homo sapiens, UniProt Q7RTX0+Q8TE23)
T1 sequence (Q8TE23 20-839): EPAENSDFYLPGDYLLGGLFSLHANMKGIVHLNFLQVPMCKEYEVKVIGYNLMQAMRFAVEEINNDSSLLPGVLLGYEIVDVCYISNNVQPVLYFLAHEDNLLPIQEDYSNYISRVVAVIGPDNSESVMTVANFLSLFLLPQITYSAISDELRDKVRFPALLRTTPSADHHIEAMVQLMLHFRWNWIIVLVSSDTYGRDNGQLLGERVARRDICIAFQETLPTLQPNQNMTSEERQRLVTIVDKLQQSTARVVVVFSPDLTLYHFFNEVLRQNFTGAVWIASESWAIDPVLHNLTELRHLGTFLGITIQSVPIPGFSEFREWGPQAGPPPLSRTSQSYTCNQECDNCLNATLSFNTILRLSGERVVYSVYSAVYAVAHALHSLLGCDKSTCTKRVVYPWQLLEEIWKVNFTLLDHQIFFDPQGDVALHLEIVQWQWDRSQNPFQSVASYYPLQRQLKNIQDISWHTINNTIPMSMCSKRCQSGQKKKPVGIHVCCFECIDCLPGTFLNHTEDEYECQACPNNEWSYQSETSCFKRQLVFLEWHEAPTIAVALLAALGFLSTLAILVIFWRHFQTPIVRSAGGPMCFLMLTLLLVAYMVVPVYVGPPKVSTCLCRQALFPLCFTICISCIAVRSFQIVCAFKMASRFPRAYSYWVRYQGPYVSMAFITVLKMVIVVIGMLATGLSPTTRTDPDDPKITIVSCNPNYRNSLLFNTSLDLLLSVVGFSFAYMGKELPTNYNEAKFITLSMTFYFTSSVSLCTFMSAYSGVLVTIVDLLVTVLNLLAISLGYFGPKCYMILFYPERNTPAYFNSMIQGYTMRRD
T1 sequence (Q7RTX0 21-852): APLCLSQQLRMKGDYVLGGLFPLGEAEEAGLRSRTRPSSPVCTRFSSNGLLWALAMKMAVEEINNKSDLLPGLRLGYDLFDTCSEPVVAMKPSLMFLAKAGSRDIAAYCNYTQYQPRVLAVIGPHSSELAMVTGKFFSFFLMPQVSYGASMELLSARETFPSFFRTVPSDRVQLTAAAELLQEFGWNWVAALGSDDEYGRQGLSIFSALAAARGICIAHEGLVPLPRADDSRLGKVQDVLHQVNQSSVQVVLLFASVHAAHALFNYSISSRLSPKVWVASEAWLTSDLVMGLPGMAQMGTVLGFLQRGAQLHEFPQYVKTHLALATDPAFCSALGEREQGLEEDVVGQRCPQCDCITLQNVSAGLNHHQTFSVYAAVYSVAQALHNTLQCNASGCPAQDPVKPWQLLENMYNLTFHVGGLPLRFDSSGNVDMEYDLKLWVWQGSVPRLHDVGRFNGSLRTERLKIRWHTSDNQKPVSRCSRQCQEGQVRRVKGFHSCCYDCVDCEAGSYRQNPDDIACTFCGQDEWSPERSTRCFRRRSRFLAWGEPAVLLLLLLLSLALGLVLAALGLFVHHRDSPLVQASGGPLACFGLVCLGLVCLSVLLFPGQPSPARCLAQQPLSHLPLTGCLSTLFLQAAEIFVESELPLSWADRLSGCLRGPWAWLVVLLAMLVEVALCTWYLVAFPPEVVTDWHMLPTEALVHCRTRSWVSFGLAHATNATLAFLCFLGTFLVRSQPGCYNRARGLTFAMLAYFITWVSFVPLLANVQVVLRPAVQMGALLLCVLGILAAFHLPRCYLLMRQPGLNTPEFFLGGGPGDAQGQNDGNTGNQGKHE
Test: Calcium mobilization (FLIPR) in transfected HEK293T-Gα16gust44 cells, human sweet receptor
Details: asp 15 mM; cyc 30 mM; neo 0.1 mM; sac 10 mM; suc 100 mM; stev 1 mM

C=C1C[C@@]23CC[C@H]4[C@@](C)(CCC[C@@]4(C)C(=O)O[C@@H]4O[C@H](CO)[C@@H](O)[C@H](O)[C@H]4O)[C@@H]2CC[C@]1(O[C@@H]1O[C@H](CO)[C@@H](O)[C@H](O)[C@H]1O[C@@H]1O[C@H](CO)[C@@H](O)[C@H](O)[C@H]1O)C3 [stevioside]
activation of receptor (calcium response): activated the human receptor

O=S(=O)(O)NC1CCCCC1 [cyclamate]
activation of receptor (calcium response): activated the human receptor

COc1ccc(CCC(=O)c2c(O)cc(O[C@@H]3O[C@H](CO)[C@@H](O)[C@H](O)[C@H]3O[C@@H]3O[C@@H](C)[C@H](O)[C@@H](O)[C@H]3O)cc2O)cc1O [neohesperidine dihydrochalcone]
activation of receptor (calcium response): activated the human receptor

OC[C@H]1O[C@@](CO)(O[C@H]2O[C@H](CO)[C@@H](O)[C@H](O)[C@H]2O)[C@@H](O)[C@@H]1O [sucrose]
activation of receptor (calcium response): activated the human receptor

COC(=O)[C@H](Cc1ccccc1)NC(=O)[C@@H](N)CC(=O)O [aspartame] (HELM PEPTIDE1{D.F.[CO[*:1]]}$$$$V2.0)
activation of receptor (calcium response): activated the human receptor
